Key:
Assay in all cases: KiNativ profiling in human PBMCs
Type in all cases: binding
[1] = test system: T1, SYK
T1 construct: purchased ActivX Technologies (KiNativ)
In short: (§1)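 Selectivity across the kinome was examined with KiNativ after exposing live peripheral blood mononuclear cells to compound at 1 µM and at 0.1 µM.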

[2] = test system: T2, RSK1 domain2; details: Lys2
T2 construct: RSK1 domain2; purchased ActivX Technologies (KiNativ)
In short: as §1

[3] = test system: T3, DNAPK; details: ATP
T3 construct: purchased ActivX Technologies (KiNativ)
In short: as §1

[4] = test system: T4, eEF2K; details: ATP
T4 construct: purchased ActivX Technologies (KiNativ)
In short: as §1

[5] = test system: ZC1/HGK,ZC2/TNIK,ZC3/MINK; details: Lys2
In short: as §1

[6] = test system: Wnk1,Wnk2,Wnk3; details: Lys2
In short: as §1

[7] = test system: T5, PIK3CB; details: ATP
T5 construct: purchased ActivX Technologies (KiNativ)
In short: as §1

[8] = test system: T6, PRPK; details: ATP Loop
T6 construct: purchased ActivX Technologies (KiNativ)
In short: as §1

[9] = test system: T7, Erk5; details: Lys2
T7 construct: purchased ActivX Technologies (KiNativ)
In short: as §1

[10] = test system: T8, ZAP70
T8 construct: purchased ActivX Technologies (KiNativ)
In short: as §1

[11] = test system: T9, PKN1; details: Lys1
T9 construct: purchased ActivX Technologies (KiNativ)
In short: as §1

[12] = test system: T10, PLK1; details: Lys1
T10 construct: purchased ActivX Technologies (KiNativ)
In short: as §1

[13] = test system: T11, MAP3K4; details: Lys2
T11 construct: purchased ActivX Technologies (KiNativ)
In short: as §1

[14] = test system: T12, MARK2; details: Lys1
T12 construct: purchased ActivX Technologies (KiNativ)
In short: as §1

[15] = test system: RSK1,RSK2,RSK3 domain1; details: Lys2
In short: as §1

[16] = test system: T13, FRAP; details: ATP
T13 construct: purchased ActivX Technologies (KiNativ)
In short: as §1

[17] = test system: T14, GCN2; details: Lys2
T14 construct: purchased ActivX Technologies (KiNativ)
In short: as §1

[18] = test system: T15, LATS1
T15 construct: purchased ActivX Technologies (KiNativ)
In short: as §1

[19] = test system: T16, MLK3; details: Lys2
T16 construct: purchased ActivX Technologies (KiNativ)
In short: as §1

[20] = test system: PCTAIRE1,PCTAIRE3; details: Lys2
In short: as §1

[21] = test system: T17, CaMK4
T17 construct: purchased ActivX Technologies (KiNativ)
In short: as §1

[22] = test system: Wnk1,Wnk2; details: ATP Loop
In short: as §1

[23] = test system: T18, PIP4K2A; details: ATP
T18 construct: purchased ActivX Technologies (KiNativ)
In short: as §1

[24] = test system: T19, PIK3CD; details: ATP
T19 construct: purchased ActivX Technologies (KiNativ)
In short: as §1

[25] = test system: T20, TLK2; details: Lys2
T20 construct: purchased ActivX Technologies (KiNativ)
In short: as §1

[26] = test system: CDK11,CDK8; details: Lys2
In short: as §1

[27] = test system: T21, JAK1 domain1; details: Other
T21 construct: JAK1 domain1; purchased ActivX Technologies (KiNativ)
In short: as §1

[28] = test system: T22, CaMK2d; details: Lys1
T22 construct: purchased ActivX Technologies (KiNativ)
In short: as §1

[29] = test system: Wnk1,Wnk2,Wnk4; details: Activation Loop
In short: as §1

[30] = test system: T23, NEK4; details: Lys2
T23 construct: purchased ActivX Technologies (KiNativ)
In short: as §1

[31] = test system: T24, PIK3CG; details: ATP
T24 construct: purchased ActivX Technologies (KiNativ)
In short: as §1

[32] = test system: T25, GSK3B; details: Lys2
T25 construct: purchased ActivX Technologies (KiNativ)
In short: as §1

[33] = test system: T26, CSK
T26 construct: purchased ActivX Technologies (KiNativ)
In short: as §1

[34] = test system: T27, PI4KB; details: ATP
T27 construct: purchased ActivX Technologies (KiNativ)
In short: as §1

[35] = test system: T28, PKR
T28 construct: purchased ActivX Technologies (KiNativ)
In short: as §1

With `Cc1cccc(-c2cc(Nc3ccn(C)n3)nc3[nH]cc(C#N)c23)c1` [Lu AF58786] the Inhibition ([1]; 0.1µM, Activation Loop) was 8.3%, the Inhibition ([1]; 0.1µM, Lys1) was 12.8% and the Inhibition ([1]; 1µM, Lys1) was -5.9%. For the same compound, the Inhibition ([2]; 0.1µM) was 11.6%, the Inhibition ([2]; 1µM) was 5.6% and the Inhibition ([3]; 0.1 µM, EHPFLVKGGEDLR) was 19.6%. It also gave an Inhibition ([3]; 0.1 µM, KGGSWIQEINVAEK) of -21.8%, an Inhibition ([3]; 1 µM, KGGSWIQEINVAEK) of 2.3% and an Inhibition ([4]; 0.1µM) of 12.2%. It also gave an Inhibition ([4]; 1µM) of 6.3%, an Inhibition ([5]; 0.1µM) of 6.6% and an Inhibition ([5]; 1µM) of -3.7%. It also gave an Inhibition ([6]; 0.1µM) of 10.5%, an Inhibition ([6]; 1µM) of -5.4% and an Inhibition ([7]; 0.1µM) of 14.0%. The Inhibition ([7]; 1µM) was -22.3%, the Inhibition ([8]; 0.1µM) was 1.0% and the Inhibition ([8]; 1µM) was 8.9%. For the same compound, the Inhibition ([9]; 0.1µM) was 2.1%, the Inhibition ([9]; 1µM) was 10.9% and the Inhibition ([10]; 0.1µM, Activation Loop) was 14.7%. For the same compound, the Inhibition ([10]; 0.1µM, Lys1) was 4.6%, the Inhibition ([10]; 1µM, Activation Loop) was 7.0% and the Inhibition ([10]; 1µM, Lys1) was 7.9%. For the same compound, the Inhibition ([11]; 0.1µM) was 18.4%, the Inhibition ([11]; 1µM) was 13.6% and the Inhibition ([12]; 0.1µM) was -7.7%. For the same compound, the Inhibition ([12]; 1µM) was -19.7%, the Inhibition ([13]; 0.1µM) was 11.1% and the Inhibition ([13]; 1µM) was -2.7%. It also gave an Inhibition ([14]; 0.1µM) of -6.2%, an Inhibition ([14]; 1µM) of -21.2% and an Inhibition ([15]; 0.1µM) of 14.1%. It also gave an Inhibition ([15]; 1µM) of 29.7%, an Inhibition ([16]; 0.1µM) of 5.2% and an Inhibition ([16]; 1µM) of -3.4%. The Inhibition ([17]; 0.1µM) was -20.3%, the Inhibition ([17]; 1µM) was -15.5% and the Inhibition ([18]; 0.1µM, Lys1) was 5.7%. It also gave an Inhibition ([18]; 0.1µM, Lys2) of -2.7%, an Inhibition ([18]; 1µM, Lys1) of 11.6% and an Inhibition ([19]; 0.1µM) of 1.5%. It also gave an Inhibition ([19]; 1µM) of 8.8%, an Inhibition ([20]; 0.1µM) of 5.6% and an Inhibition ([20]; 1µM) of -11.1%. The Inhibition ([21]; 0.1µM, Lys1) was 11.0%, the Inhibition ([21]; 0.1µM, Lys2) was 14.0% and the Inhibition ([21]; 1µM, Lys1) was 23.7%. For the same compound, the Inhibition ([21]; 1µM, Lys2) was 12.9%, the Inhibition ([22]; 0.1µM) was 12.8% and the Inhibition ([22]; 1µM) was 3.9%. For the same compound, the Inhibition ([23]; 0.1µM) was -4.0%, the Inhibition ([23]; 1µM) was -14.7% and the Inhibition ([24]; 0.1 µM, TKVNWLAHNVSKDNRQ) was -4.8%. It also gave an Inhibition ([24]; 0.1 µM, VNWLAHNVSKDNRQ) of 8.9%, an Inhibition ([24]; 1 µM, TKVNWLAHNVSKDNRQ) of 14.4% and an Inhibition ([24]; 1 µM, VNWLAHNVSKDNRQ) of 18.8%. The Inhibition ([25]; 0.1µM) was 13.3%, the Inhibition ([25]; 1µM) was -1.2% and the Inhibition ([26]; 0.1µM) was -20.3%. It also gave an Inhibition ([26]; 1µM) of -2.0%, an Inhibition ([27]; 0.1 µM) of 19.3% and an Inhibition ([27]; 1 µM) of 55.0%. For the same compound, the Inhibition ([28]; 0.1µM) was 3.9%, the Inhibition ([28]; 1µM) was -3.2% and the Inhibition ([29]; 0.1µM) was 0.9%. It also gave an Inhibition ([29]; 1µM) of -6.6%, an Inhibition ([30]; 0.1µM) of -32.0% and an Inhibition ([30]; 1µM) of -14.9%. The Inhibition ([31]; 0.1µM) was 8.8%, the Inhibition ([31]; 1µM) was 2.1% and the Inhibition ([32]; 0.1µM) was 9.9%. It also gave an Inhibition ([32]; 1µM) of 21.4%, an Inhibition ([33]; 0.1µM, Activation Loop) of 7.6% and an Inhibition ([33]; 0.1µM, Lys1) of 16.0%. It also gave an Inhibition ([33]; 1µM, Activation Loop) of -1.7%, an Inhibition ([33]; 1µM, Lys1) of 6.8% and an Inhibition ([34]; 0.1µM) of 15.3%. The Inhibition ([34]; 1µM) was 6.2%, the Inhibition ([35]; 0.1µM, Activation Loop) was 6.9% and the Inhibition ([35]; 0.1µM, Lys2) was 5.1%. The Inhibition ([35]; 1µM, Activation Loop) was -2.5% and the Inhibition ([35]; 1µM, Lys2) was 4.5%.

— publication PMC5578959, “Selective LRRK2 kinase inhibition reduces phosphorylation of endogenous Rab10 and Rab12 in human peripheral mononuclear blood cells” (Scientific Reports, 2017)
